Data on 22 molecules can be found in patent US20220135591A1, “HETEROCYCLIC COMPOUNDS AS INHIBITORS OF MONOACYLGLYCEROL LIPASE (MAGL)” (Hoffmann-La Roche Inc., priority 2019, published 2022).

As usually defined, the IC50 is the concentration that gives 50% inhibition. The low end stands for inhibition by little substance, the high end for a need for much substance.

For this assay, the target named is T1, MAGL (Homo sapiens, UniProt Q99685).
T1 sequence (Q99685 1-303): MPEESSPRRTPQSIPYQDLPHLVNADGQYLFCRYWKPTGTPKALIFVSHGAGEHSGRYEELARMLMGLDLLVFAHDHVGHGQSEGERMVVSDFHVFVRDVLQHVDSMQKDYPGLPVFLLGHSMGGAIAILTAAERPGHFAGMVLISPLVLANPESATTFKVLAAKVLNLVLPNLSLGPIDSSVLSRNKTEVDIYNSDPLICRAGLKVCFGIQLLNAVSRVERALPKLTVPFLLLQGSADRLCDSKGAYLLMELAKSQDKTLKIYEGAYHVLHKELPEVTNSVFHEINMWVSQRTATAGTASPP
Nature of the assay: 2-AG assay: MAGL inhibitory activity by hydrolysis of 2-arachidonoylglycerol to arachidonic acid, mass spectrometry. It is filed as biochemical. Particulars: 2-AG assay (values marked [b]). As for the experimental part: Alternatively, compounds were profiled for MAGL inhibitory activity by determining the enzymatic activity by following the hydrolysis of the natural substrate 2-arachidonoylglycerol (2-AG) resulting in arachidonic acid, which can be followed by mass spectrometry. This assay is hereinafter abbreviated “2-AG assay”.
The 2-AG assay was carried out in 384 well assay plates (PP, Greiner Cat #784201) in a total volume of 20 μL. Compound dilutions were made in 100% DMSO (VWR Chemicals 23500.297) in a polypropylene plate in 3-fold dilution steps to give a final concentration range in the assay from 12.5 μM to […]. 0.25 μL compound dilutions (100% DMSO) were added to 9 μL MAGL in assay buffer (50 mM TRIS (GIBCO, 15567-027), 1 mM EDTA (Fluka, 03690-100 mL), 0.01% (v/v) Tween. After shaking, the plate was incubated for 15 min at RT. To start the reaction, 10 μL 2-arachidonoylglycerol in assay buffer was added. The final concentrations in the assay was […] and 8 μM 2-arachidonoylglyerol. After shaking and 30 min incubation at RT, the reaction was quenched by the addition of 40 μL of ACN containing 4 μM of d8-arachidonic acid. The amount of arachidonic acid was traced by an online SPE system (Agilent Rapidfire) coupled to a triple quadrupole mass spectrometer (Agilent 6460). A C18 SPE cartridge (G9205A) was used in an ACN/water liquid setup. The mass spectrometer was operated in negative electrospray mode following the mass transitions 303.1→259.1 for arachidonic acid and 311.1→267.0 for d8-arachidonic acid. The activity of the compounds was calculated based on the ratio of intensities [arachidonic acid/d8-arachidonic acid].

`CC(C)(C)Cn1cc(-c2c(F)cc(C(=O)N3CCN(c4nc5nc(Cl)ccc5o4)CC3)cc2F)nn1` [Example 93, (4-(5-chlorooxazolo[4,5-b]pyridin-2-yl)piperazin-1-yl)(3,5-difluoro-4-(1-neopentyl-1H-1,2,3-triazol-4-yl)phenyl)methanone]: half-maximal inhibition (IC50) was put at 7 nM.
In turn, `CC(C)(C)Cn1nnc(-c2ccc(C(=O)N3CCN(c4nc5nc(Cl)ccc5o4)CC3)cc2F)n1` [Example 304, [4-(5-chlorooxazolo[4,5-b]pyridin-2-yl)piperazin-1-yl]-[4-[2-(2,2-dimethylpropyl)tetrazol-5-yl]-3-fluoro-phenyl]methanone] gave an IC50 of 4 nM.
`Cc1ccc2oc(N3CCN(C(=O)c4cnc(OCC5(C)CC5)c(F)c4)CC3)nc2n1` [Example 148, (5-fluoro-6-((1-methylcyclopropyl)methoxy)pyridin-3-yl)(4-(5-methyloxazolo[4,5-b]pyridin-2-yl)piperazin-1-yl)methanone]: the IC50 came out at 226 nM.
The result for `CC(C)(C)Cn1cc(-c2ccc(C(=O)N3CCN(c4nc5nc(Cl)ccc5o4)C(CO)C3)cc2)nn1` (stereo not shown) [Example 285, [4-(5-chlorooxazolo[4,5-b]pyridin-2-yl)-3-(hydroxymethyl)piperazin-1-yl]-[4-[1-(2,2-dimethylpropyl)triazol-4-yl]phenyl]methanone] reads 2050 nM; that for `CC(C)(C#N)Cn1ncc(-c2ccc(C(=O)N3CCN(c4nc5nc(Cl)ccc5o4)CC3)cc2)n1` [Example 136, 3-[4-[4-[4-(5-chlorooxazolo[4,5-b]pyridin-2-yl)piperazine-1-carbonyl]phenyl]triazol-2-yl]-2,2-dimethyl-propanenitrile], 34 nM.
To `Cc1cc(C(=O)N2CCN(c3nc4nc(Cl)ccc4o3)CC2)cnc1-c1cnn(C(C)(C)C)c1` [Example 190, [6-(1-tert-butylpyrazol-4-yl)-5-methylpyridin-3-yl]-[4-(5-chloro-[1,3]oxazolo[4,5-b]pyridin-2-yl)piperazin-1-yl]methanone] belongs 46 nM; to `Cc1ccc2oc(N3CCN(C(=O)c4cnc(-c5cnn(C(C)(C)C)c5)c(C)c4)CC3)nc2n1` [Example 191, [6-(1-tert-butylpyrazol-4-yl)-5-methylpyridin-3-yl]-[4-(5-methyl-[1,3]oxazolo[4,5-b]pyridin-2-yl)piperazin-1-yl]methanone], 98 nM; to `Cc1ccc2oc(N3CCN(C(=O)c4ccc(-c5cn(CC(F)(F)F)nn5)cc4)CC3)nc2n1` [Example 99, (4-(5-methyloxazolo[4,5-b]pyridin-2-yl)piperazin-1-yl)(4-(1-(2,2,2-trifluoroethyl)-1H-1,2,3-triazol-4-yl)phenyl)methanone], 523 nM.
To `CC(C)(C)c1nnc(-c2ccc(C(=O)N3CCN(c4nc5nc(Cl)ccc5o4)CC3)cc2Cl)o1` [Example 115, (4-(5-(tert-butyl)-1,3,4-oxadiazol-2-yl)-3-chlorophenyl)(4-(5-chlorooxazolo[4,5-b]pyridin-2-yl)piperazin-1-yl)methanone] belongs 8 nM; to `O=C(C#Cc1ccccc1)N1CCN(c2nc3nc(Cl)ccc3o2)CC1` [Example 102, 1-(4-(5-chlorooxazolo[4,5-b]pyridin-2-yl)piperazin-1-yl)-3-phenylprop-2-yn-1-one], 932 nM.
Consider `Cc1cc(C(=O)N2CCN(c3nc4nc(Cl)ccc4o3)CC2)cnc1OCC1CCCO1` (stereo not shown) [Example 166, (4-(5-chlorooxazolo[4,5-b]pyridin-2-yl)piperazin-1-yl)(5-methyl-6-((tetrahydrofuran-2-yl)methoxy)pyridin-3-yl)methanone], for which the IC50 came out at 475 nM.
To `CC(C)(C)Cn1nnc(-c2ncc(C(=O)N3CCN(c4nc5nc(Cl)ccc5o4)CC3)cc2F)n1` [Example 306, [4-(5-chlorooxazolo[4,5-b]pyridin-2-yl)piperazin-1-yl]-[6-[2-(2,2-dimethylpropyl)tetrazol-5-yl]-5-fluoro-3-pyridyl]methanone] belongs 363 nM.
The result for `CC(C)(C)Cn1ncc(-c2ccc(C(=O)N3CCN(c4nc5nc(Cl)ccc5o4)CC3)cc2C#N)n1` [Example 234, 5-(4-(5-chlorooxazolo[4,5-b]pyridin-2-yl)piperazine-1-carbonyl)-2-(2-neopentyl-2H-1,2,3-triazol-4-yl)benzonitrile] reads 10 nM.
The result for `O=C(C#Cc1ccc(Cl)cc1)N1CCN(c2nc3nc(Cl)ccc3o2)CC1` [Example 103, 1-(4-(5-chlorooxazolo[4,5-b]pyridin-2-yl)piperazin-1-yl)-3-(4-chlorophenyl)prop-2-yn-1-one] reads 452 nM; that for `CC(C)(C)n1cnc(-c2ccc(C(=O)N3CCN(c4nc5nc(Cl)ccc5o4)CC3)cc2C(F)(F)F)n1` [Example 112, [4-(1-tert-butyl-1,2,4-triazol-3-yl)-3-(trifluoromethyl)phenyl]-[4-(5-chloro-[1,3]oxazolo[4,5-b]pyridin-2-yl)piperazin-1-yl]methanone], 12 nM.
Regarding `COc1cc(C(=O)N2CCN(c3nc4nc(Cl)ccc4o3)CC2)ccc1-c1cnn(CC(C)(C)C)n1` [Example 238, (4-(5-chlorooxazolo[4,5-b]pyridin-2-yl)piperazin-1-yl)(3-methoxy-4-(2-neopentyl-2H-1,2,3-triazol-4-yl)phenyl)methanone], half-maximal inhibition (IC50) required 1 nM.
In the case of `CC(C)(C)Cn1cc(-c2ccc(C(=O)N3CCN(c4nc5nc(Cl)ccc5o4)C[C@@H]3CO)cc2)nn1` (stereo in doubt) [Example 290, [(2R)-4-(5-chlorooxazolo[4,5-b]pyridin-2-yl)-2-(hydroxymethyl)piperazin-1-yl]-[4-[1-(2,2-dimethylpropyl)triazol-4-yl]phenyl]methanone], the concentration for half-maximal inhibition (IC50) amounted to 2070 nM.
The result for `C#Cc1ccc(C(=O)N2CCN(c3nc4nc(Cl)ccc4o3)CC2)cc1OC` [Example 104, (4-(5-chlorooxazolo[4,5-b]pyridin-2-yl)piperazin-1-yl)(4-ethynyl-3-methoxyphenyl)methanone] reads 109 nM.
The result for `Cc1cc(C(=O)N2CCN(c3nc4nc(Cl)ccc4o3)CC2)cnc1OCC1CC1` [Example 155, (4-(5-chlorooxazolo[4,5-b]pyridin-2-yl)piperazin-1-yl)(6-(cyclopropylmethoxy)-5-methylpyridin-3-yl)methanone] reads 90 nM.
To `O=C(c1ccc(-c2cn(CC3(F)CC3)nn2)cc1)N1CCN(c2nc3nc(Cl)ccc3o2)CC1` [Example 125, (4-(5-chlorooxazolo[4,5-b]pyridin-2-yl)piperazin-1-yl)(4-(1-((1-fluorocyclopropyl)methyl)-1H-1,2,3-triazol-4-yl)phenyl)methanone] belongs 121 nM; to `CC(C)(C)Cn1ncc(-c2ccc(C(=O)N3CCN(c4nc5nc(Cl)ccc5o4)CC3)cc2F)n1` [Example 84, (4-(5-chlorooxazolo[4,5-b]pyridin-2-yl)piperazin-1-yl)(3-fluoro-4-(2-neopentyl-2H-1,2,3-triazol-4-yl)phenyl)methanone], 2 nM.
`Cc1cc(C(=O)N2CCN(c3nc4nc(Cl)ccc4o3)CC2)ccc1-c1ncn(C(C)(C)C)n1` [Example 97, (4-(1-(tert-butyl)-1H-1,2,4-triazol-3-yl)-3-methylphenyl)(4-(5-chlorooxazolo[4,5-b]pyridin-2-yl)piperazin-1-yl)methanone] yielded a half-inhibitory concentration (IC50) of 12 nM.
